Experimental data as given in patent US9399639B2, “Substituted azaindole compounds, salts, pharmaceutical compositions thereof and methods of use” (Calitor Sciences, LLC, priority 2012, dated 2016).

How the values were obtained:
Type in all cases: in vitro ADME
[1] = Compound stability in human liver microsomes; details: for CLint scaled at 1 μM: pH 7.4, in vivo CLint extrapolated; for half-life at 1 μM: pH 7.4, read-out: Human T1/2
Description: (§1) Human or rat liver microsomes incubations were conducted in duplicate in polypropylene tubes. […] Compounds were dissolved in DMSO and diluted with PBS such that the final concentration of DMSO was 0.05%. The enzymatic reactions were commenced with the addition of protein after a 3 min preincubation and incubated in a water bath open to the air at 37° C. Reactions were terminated at various time points (0, 5, 10, 15, 30, 60 min) by adding equal volume of ice-cold acetonitrile. The samples were stored at −80° C. until LC/MS/MS assays.
(§2) The concentrations of compounds in the incubation mixtures of human (or rat) liver microsomes were determined by a LC/MS/MS method. The ranges of the linearity in the concentration range were determined for each tested compounds.
(§3) A parallel incubation was performed using denatured microsomes as the negative control, and reactions were terminated at various time points (for example, 0, 15, 60 min) after incubation at 37° C.
(§4) Dextromethorphan (70 μM) was selected as the positive control, and reactions were terminated at various time points (0, 5, 10, 15, 30, 60 min) after incubation at 37° C. Both positive and negative control samples were included in each assay to ensure the integrity of the microsomal incubation system.
(§5) Alternatively, the stability of some of the compounds disclosed herein in human (or rat) liver microsomes were also conducted in the following protocol. The incubations were conducted in duplicate in polypropylene tubes. […] Compounds were dissolved in DMSO and diluted with K-buffer such that the final concentration of DMSO was 0.2%. The enzymatic reactions were commenced with the addition of 15 μL of NADPH (final concentration: 2 mM) after 10 min preincubation and incubated in a 37° C. incubator. Reactions were terminated at various time points (0, 15, 30, 60 min) by adding 135 μL acetonitrile (contain IS). Protein is removed by centrifugation with 4,000 rpm, 10 min.
(§6) In the above protocol, ketanserin (1 μM) was selected as the positive control, and reactions were terminated at various time points (0, 15, 30, 60 min) after incubation at 37° C. The positive control sample was included in each assay to ensure the integrity of the microsomal incubation system.
(§7) The concentrations of compounds in liver microsome incubations were plotted as a percentage of the relevant zero time point control for each reaction. The in vivo CLint were extrapolated (ref: Naritomi et al., Prediction of human hepatic clearance from in vivo animal experiments and in vitro metabolic studies with liver microsomes from animals and humans, Drug Metab. Dispos., 2001, 29: 1316-1324.) […]

[2] = Stability in human plasma; details: for half-life at 2 μM: read-out: Human T1/2; for Human T1/2: 2 μM
Description: (§8) Similarly, selected compounds of the invention were also assessed for their stability in human and rat plasma, and the results are listed in Table 3.

[3] = Compound stability in rat liver microsomes; details: for CLint scaled at 1 μM: pH 7.4, in vivo CLint extrapolated; for half-life at 1 μM: pH 7.4, read-out: Rat T1/2
Description: as §1, §2, §3, §4, §5, §6, §7

Stability in rat plasma = details: read-out: Rat T1/2
Description: as §8

| Structure (SMILES) | CLint scaled at 1 μM [1] [mL/min/kg] | half-life at 1 μM [1] [min] | half-life at 2 μM [2] [min] | CLint scaled at 1 μM [3] [mL/min/kg] | half-life at 1 μM [3] [min] | half-life at 2 μM (Stability in rat plasma) [min] | Human T1/2 [2] | Human T1/2 ([1]; 1 μM) |
| --- | --- | --- | --- | --- | --- | --- | --- | --- |
| CCCS(=O)(=O)N(C(=O)c1ccccc1)c1ccc(F)c(C(=O)c2c[nH]c3ncc(-c4ccc(Cl)cc4)cc23)c1F [Ex. 2, N-(3-(5-(4-chlorophenyl)-1H-pyrrolo[2,3-b]pyridine-3-carbonyl)-2,4-difluorophenyl)-N-(propylsulfonyl)benzamide] | 29.2 | 59.5 |  | 193 | 12.8 |  |  |  |
| CCCS(=O)(=O)N(C(=O)OCC)c1ccc(F)c(C(=O)c2c[nH]c3ncc(-c4ccc(Cl)cc4)cc23)c1F [Ex. 1, ethyl 3-(5-(4-chlorophenyl)-1H-pyrrolo[2,3-b]pyridine-3-carbonyl)-2,4-difluorophenyl(propylsulfonyl)carbamate] | 60.2 | 28.9 |  | 142 | 17.5 |  |  |  |
| CCCS(=O)(=O)Nc1ccc(F)c(C(=O)c2cn(COC(=O)[C@@H](N)C(C)CC)c3ncc(-c4ccc(Cl)cc4)cc23)c1F.Cl (stereo partly drawn) [Ex. 22, (2S)-(5-(4-chlorophenyl)-3-(2,6-difluoro-3-(propylsulfonamido)benzoyl)-1H-pyrrolo[2,3-b]pyridin-1-yl)methyl-2-amino-3-methylpentanoate hydrochloride] | 23.9 | 72.8 | 6.81 | 535 | 4.6 | 15.2 |  |  |
| CCCS(=O)(=O)Nc1ccc(F)c(C(=O)c2cn(COC(=O)CN)c3ncc(-c4ccc(Cl)cc4)cc23)c1F.Cl [Ex. 19, (5-(4-chlorophenyl)-3-(2,6-difluoro-3-(propylsulfonamido)benzoyl)-1H-pyrrolo[2,3-b]pyridin-1-yl)methyl 2-aminoacetate hydrochloride] |  |  | 7.47 |  |  | 5.9 |  |  |
| CCCS(=O)(=O)Nc1ccc(F)c(C(=O)c2cn(COC(=O)C(C)(C)C)c3ncc(-c4ccc(Cl)cc4)cc23)c1F [Ex. 7a, (5-(4-chlorophenyl)-3-(2,6-difluoro-3-(propylsulfonamido)benzoyl)-1H-pyrrolo[2,3-b]pyridin-1-yl)methyl pivalate] |  |  |  | 46.8 | 53.1 | 68.8 | ∞ | ∞ |
| CCCS(=O)(=O)Nc1ccc(F)c(C(=O)c2cn(COC(=O)OCC)c3ncc(-c4ccc(Cl)cc4)cc23)c1F [Ex. 26, (5-(4-chlorophenyl)-3-(2,6-difluoro-3-(propylsulfonamido)benzoyl)-1H-pyrrolo[2,3-b]pyridin-1-yl)methyl ethyl carbonate] |  |  | 81.6 |  |  |  |  |  |
| CCCS(=O)(=O)Nc1ccc(F)c(C(=O)c2cn(COC(=O)[C@@H](N)CC(C)C)c3ncc(-c4ccc(Cl)cc4)cc23)c1F.Cl [Ex. 23, (S)-(5-(4-chlorophenyl)-3-(2,6-difluoro-3-(propylsulfonamido)benzoyl)-1H-pyrrolo[2,3-b]pyridin-1-yl)methyl 2-amino-4-methylpentanoate hydrochloride] | 15.4 | 113 | 3.06 | 429 | 5.8 | 3.42 |  |  |
| CCCS(=O)(=O)Nc1ccc(F)c(C(=O)c2cn(COC(=O)C(N)C(C)C)c3ncc(-c4ccc(Cl)cc4)cc23)c1F.Cl (stereo not drawn) [Ex. 18, (5-(4-chlorophenyl)-3-(2,6-difluoro-3-(propylsulfonamido)benzoyl)-1H-pyrrolo[2,3-b]pyridin-1-yl)methyl 2-amino-3-methylbutanoate hydrochloride] | 5.52 | 78.8 | 6.08 |  |  | 9.61 |  |  |

The remaining lines, values ahead:

| CLint scaled at 1 μM [1] [mL/min/kg] | half-life at 1 μM [1] [min] | half-life at 2 μM [2] [min] | CLint scaled at 1 μM [3] [mL/min/kg] | half-life at 1 μM [3] [min] | half-life at 2 μM (Stability in rat plasma) [min] | Human T1/2 [2] | Human T1/2 ([1]; 1 μM) | Structure (SMILES) |
| --- | --- | --- | --- | --- | --- | --- | --- | --- |
| 51.7 | 33.6 | 511 |  |  |  |  |  | CCCS(=O)(=O)Nc1ccc(F)c(C(=O)c2cn(C(C)OC(=O)C(C)C)c3ncc(-c4ccc(Cl)cc4)cc23)c1F (stereo not drawn) [Ex. 14, 1-(5-(4-chlorophenyl)-3-(2,6-difluoro-3-(propylsulfonamido)benzoyl)-1H-pyrrolo[2,3-b]pyridin-1-yl)ethyl isobutyrate] |
|  |  | 162 |  |  | 49.8 |  |  | CCCS(=O)(=O)Nc1ccc(F)c(C(=O)c2cn(C(OC(=O)CC)C(C)C)c3ncc(-c4ccc(Cl)cc4)cc23)c1F (stereo not drawn) [Ex. 11, 1-(5-(4-chlorophenyl)-3-(2,6-difluoro-3-(propylsulfonamido)benzoyl)-1H-pyrrolo[2,3-b]pyridin-1-yl)-2-methylpropyl propionate] |
|  |  | 113 |  |  | 28.6 |  |  | CCCS(=O)(=O)Nc1ccc(F)c(C(=O)c2cn(COC(=O)C(C)C)c3ncc(-c4ccc(Cl)cc4)cc23)c1F [Ex. 9, (5-(4-chlorophenyl)-3-(2,6-difluoro-3-(propylsulfonamido)benzoyl)-1H-pyrrolo[2,3-b]pyridin-1-yl)methyl isobutyrate] |
|  |  | 57.9 |  |  | 49.5 |  |  | CCCS(=O)(=O)Nc1ccc(F)c(C(=O)c2cn(C(C)OC(=O)OCC)c3ncc(-c4ccc(Cl)cc4)cc23)c1F (stereo not drawn) [Ex. 28, 1-(5-(4-chlorophenyl)-3-(2,6-difluoro-3-(propylsulfonamido)benzoyl)-1H-pyrrolo[2,3-b]pyridin-1-yl)ethyl ethyl carbonate] |
|  |  |  |  |  | 56.3 | ∞ |  | CCCS(=O)(=O)Nc1ccc(F)c(C(=O)c2cn(C(C)OC(=O)OC(C)C)c3ncc(-c4ccc(Cl)cc4)cc23)c1F (stereo not drawn) [Ex. 30, 1-(5-(4-chlorophenyl)-3-(2,6-difluoro-3-(propylsulfonamido)benzoyl)-1H-pyrrolo[2,3-b]pyridin-1-yl)ethyl isopropyl carbonate] |
|  |  | 79.6 |  |  | 55.9 |  |  | CCCS(=O)(=O)Nc1ccc(F)c(C(=O)c2cn(COC(=O)OC(C)C)c3ncc(-c4ccc(Cl)cc4)cc23)c1F [Ex. 27, (5-(4-chlorophenyl)-3-(2,6-difluoro-3-(propylsulfonamido)benzoyl)-1H-pyrrolo[2,3-b]pyridin-1-yl)methyl isopropyl carbonate] |
|  |  |  |  |  | 157 | ∞ |  | CCCS(=O)(=O)Nc1ccc(F)c(C(=O)c2cn(C(OC(=O)C(C)C)C(C)C)c3ncc(-c4ccc(Cl)cc4)cc23)c1F (stereo not drawn) [Ex. 16, 1-(5-(4-chlorophenyl)-3-(2,6-difluoro-3-(propylsulfonamido)benzoyl)-1H-pyrrolo[2,3-b]pyridin-1-yl)-2-methylpropyl isobutyrate] |
|  |  | 39.6 |  |  | 18.6 |  |  | CCCS(=O)(=O)Nc1ccc(F)c(C(=O)c2cn(COC(=O)CC)c3ncc(-c4ccc(Cl)cc4)cc23)c1F [Ex. 15, (5-(4-chlorophenyl)-3-(2,6-difluoro-3-(propylsulfonamido)benzoyl)-1H-pyrrolo[2,3-b]pyridin-1-yl)methyl propionate] |
|  |  | 88.1 |  |  | 55.8 |  |  | CCCS(=O)(=O)Nc1ccc(F)c(C(=O)c2cn(C(C)OC(=O)CC)c3ncc(-c4ccc(Cl)cc4)cc23)c1F (stereo not drawn) [Ex. 10, 1-(5-(4-chlorophenyl)-3-(2,6-difluoro-3-(propylsulfonamido)benzoyl)-1H-pyrrolo[2,3-b]pyridin-1-yl)ethyl propionate] |
